# In US20260049088A1, “TRICYCLIC HETEROCYCLIC DERIVATIVES, COMPOSITIONS AND USES THEREOF” (Danatlas Pharmaceuticals Co., Ltd., priority 2023, published 2026):
# Biological target: T1, hPARG (Homo sapiens, UniProt Q86W56)
# T1 construct: made in house; host or cells: E. coli
# Assay: PARG enzymatic activity assay (HTRF)
# Format: biochemical
# Details: C-terminal His6-tag hPARG 65 pM, biotinylated-NAD ribosylated PARP1 substrate 8 nM
# Description: HTRF assay was used to measure the ability of compounds to inhibit the activity of […] in vitro. C-terminal His6—tag PARG expressed in E. coli was purified and stored at −80° C. in aliquots. Assay measurements were performed with 1×buffer comprising 50 mM Tris pH 7.4, 0.1 mg/mL BSA, 3 mM EDTA, 0.4 mM EGTA, 1 mM DTT, 50 mM KCl and 0.01% Tween 20. Compounds dissolved in DMSO were plated into a 384-well assay plate (PerkinElmer, Catalog #: 6008280) in duplicate using a dispenser (Labcyte, Echo 665), and tested on a 10-point 4-fold serial dilution. Add 5 μL Enzyme mix [hPARG (C-terminal His6—tag, 4.2 μM), 65 pM final] to the test wells. The plates were covered and left to incubate for 60 minutes at RT before the addition of 5 μL substrate mix [biotinylated-NAD ribosylated PARP1 (6.1 μM), 8 nM final] to initiate reaction. After incubating 10 minutes at RT, add 2.5 μL Streptavidin-Eu cryptate (Cisbio, Catalog #: 610SAKLA) and 2.5 μL Mab anti 6HIS-XL665 (Cisbio, Catalog #: 61HISXLA) to the plate, and incubate for 60 minutes at RT. Read on a multimode plate reader (PerkinElmer, Envision 2015) in time-resolved fluorescence (TRF) mode, with excitation at 337 nm and emission at both 620 nm and 665 nm. Average HTRF signal of high control (Wells with 1% DMSO) was calculated and as Vehicle Control (VC). Average HTRF signal of low control (no Enzyme) was calculated and as Positive control (PC).
# IC50 values were determined by fitting the data to the standard 4 parameters with Hill Slope using GraphPad Prism software.
# T1 sequence (Q86W56 whole entry): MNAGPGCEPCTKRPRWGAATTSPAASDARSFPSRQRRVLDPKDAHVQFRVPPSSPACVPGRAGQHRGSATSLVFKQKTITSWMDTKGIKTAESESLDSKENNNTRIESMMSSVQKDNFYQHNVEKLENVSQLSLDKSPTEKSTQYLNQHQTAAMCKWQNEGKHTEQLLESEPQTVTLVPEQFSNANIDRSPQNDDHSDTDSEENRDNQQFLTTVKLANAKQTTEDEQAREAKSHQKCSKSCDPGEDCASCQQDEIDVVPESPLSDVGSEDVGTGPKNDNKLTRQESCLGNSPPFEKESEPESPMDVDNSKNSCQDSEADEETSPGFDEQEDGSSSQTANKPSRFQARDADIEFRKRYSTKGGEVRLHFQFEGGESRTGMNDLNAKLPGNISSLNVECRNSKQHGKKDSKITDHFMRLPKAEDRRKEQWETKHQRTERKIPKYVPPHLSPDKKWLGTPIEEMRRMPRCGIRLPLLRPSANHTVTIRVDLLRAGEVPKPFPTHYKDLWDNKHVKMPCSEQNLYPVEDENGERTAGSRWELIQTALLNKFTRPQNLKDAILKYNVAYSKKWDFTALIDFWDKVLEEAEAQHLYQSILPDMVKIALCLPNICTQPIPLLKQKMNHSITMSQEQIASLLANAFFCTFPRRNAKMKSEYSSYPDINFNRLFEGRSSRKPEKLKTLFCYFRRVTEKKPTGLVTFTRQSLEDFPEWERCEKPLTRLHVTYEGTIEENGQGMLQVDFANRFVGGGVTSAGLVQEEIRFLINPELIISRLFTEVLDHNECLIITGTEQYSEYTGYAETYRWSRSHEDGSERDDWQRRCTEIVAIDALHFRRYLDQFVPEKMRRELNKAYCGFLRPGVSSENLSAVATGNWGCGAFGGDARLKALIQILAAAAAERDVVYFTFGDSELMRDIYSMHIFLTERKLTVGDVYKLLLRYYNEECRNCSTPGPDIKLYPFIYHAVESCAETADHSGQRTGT
row,SMILES,IC50 [nM]
1,"N#CC1(NS(=O)(=O)c2ccc3c4c(SCCN5CCOCC5)ncnc4n(-c4nnc(C(F)F)s4)c3c2)CC1 [Example 83, N-(1-Cyanocyclopropyl)-9-(5-(difluoromethyl)-1,3,4-thiadiazol-2-yl)-4-((2-morpholinoethyl)thio)-9H-pyrimido[4,5-b]indole-7-sulfonamide]",100 to 1000
2,"CN(CCN1CCC(F)(F)CC1)c1ncnc2c1c1ccc(S(=O)(=O)NC3(C#N)CC3)cc1n2-c1nnc(C(F)F)s1 [Example 77, N-(1-Cyanocyclopropyl)-9-(5-(difluoromethyl)-1,3,4-thiadiazol-2-yl)-4-((2-(4,4-difluoropiperidin-1-yl)ethyl)(methyl)amino)-9H-pyrimido[4,5-b]indole-7-sulfonamide]",100 to 1000
3,"CCN1CCC2CN(c3ncnc4c3c3ccc(S(=O)(=O)NC5(C#N)CC5)cc3n4-c3nnc(C(F)F)s3)CCC21 (centres unmarked) [Example 38, N-(1-Cyanocyclopropyl)-9-(5-(difluoromethyl)-1,3,4-thiadiazol-2-yl)-4-(1-ethyloctahydro-5H-pyrrolo[3,2-c]pyridin-5-yl)-9H-pyrimido[4,5-b]indole-7-sulfonamide]",≤ 100
4,"N#CC1(NS(=O)(=O)c2ccc3c4c(OCCN5CCCS5(=O)=O)ncnc4n(-c4nnc(C(F)F)s4)c3c2)CC1 [Example 91, N-(1-Cyanocyclopropyl)-9-(5-(difluoromethyl)-1,3,4-thiadiazol-2-yl)-4-(2-(1,1-dioxidoisothiazolidin-2-yl)ethoxy)-9H-pyrimido[4,5-b]indole-7-sulfonamide]",≤ 100
5,"CCc1cnc2n1CCN(c1ncnc3c1c1ccc(S(=O)(=O)NC4(C#N)CC4)cc1n3-c1nnc(C(F)F)s1)C2 [Example 54, N-(1-Cyanocyclopropyl)-9-(5-(difluoromethyl)-1,3,4-thiadiazol-2-yl)-4-(3-ethyl-5,6-dihydroimidazo[1,2-a]pyrazin-7(8H)-yl)-9H-pyrimido[4,5-b]indole-7-sulfonamide]",≤ 100
6,"N#CC1(NS(=O)(=O)c2ccc3c4c(N5CCn6cncc6C5)ncnc4n(-c4nnc(C(F)F)s4)c3c2)CC1 [Example 45, N-(1-Cyanocyclopropyl)-9-(5-(difluoromethyl)-1,3,4-thiadiazol-2-yl)-4-(5,6-dihydroimidazo[1,5-a]pyrazin-7(8H)-yl)-9H-pyrimido[4,5-b]indole-7-sulfonamide]",≤ 100
7,"N#CC1(NS(=O)(=O)c2ccc3c4c(/C=C/CN5CCOCC5)ncnc4n(-c4nnc(C(F)F)s4)c3c2)CC1 [Example 85, (E)-N-(1-Cyanocyclopropyl)-9-(5-(difluoromethyl)-1,3,4-thiadiazol-2-yl)-4-(3-morpholinoprop-1-en-1-yl)-9H-pyrimido[4,5-b]indole-7-sulfonamide]",≤ 100
8,"N#CC1(NS(=O)(=O)c2ccc3c4c(OCCCN5CCOCC5)ncnc4n(-c4nnc(C(F)F)s4)c3c2)CC1 [Example 2, N-(1-Cyanocyclopropyl)-9-(5-(difluoromethyl)-1,3,4-thiadiazol-2-yl)-4-(3-morpholinopropoxy)-9H-pyrimido[4,5-b]indole-7-sulfonamide]",≤ 100
9,"CCN(CC)[C@H]1CCN(c2ncnc3c2c2ccc(S(=O)(=O)NC4(C#N)CC4)cc2n3-c2nnc(C(F)F)s2)C[C@H]1F [Example 34, N-(1-Cyanocyclopropyl)-4-((3R,4S)-4-(diethylamino)-3-fluoropiperidin-1-yl)-9-(5-(difluoromethyl)-1,3,4-thiadiazol-2-yl)-9H-pyrimido[4,5-b]indole-7-sulfonamide]",≤ 100
10,"CSc1ncnc2c1c1ccc(S(=O)(=O)NC3(C#N)CC3)cc1n2-c1nnc(C(F)F)s1 [Example 25, N-(1-cyanocyclopropyl)-9-(5-(difluoromethyl)-1,3,4-thiadiazol-2-yl)-4-(methylthio)-9H-pyrimido[4,5-b]indole-7-sulfonamide]",≤ 100
11,"CCN(CC)C1CCN(c2ncnc3c2c2ccc(S(=O)(=O)NC4(C#N)CC4)cc2n3-c2nnc(C(F)F)s2)CC1 [Example 28, N-(1-Cyanocyclopropyl)-4-(4-(diethylamino)piperidin-1-yl)-9-(5-(difluoromethyl)-1,3,4-thiadiazol-2-yl)-9H-pyrimido[4,5-b]indole-7-sulfonamide]",≤ 100
12,"CN(CC(=O)O)c1ncnc2c1c1ccc(S(=O)(=O)NC3(C#N)CC3)cc1n2-c1nnc(C(F)F)s1 [Example 19, N-(7-(N-(1-Cyanocyclopropyl)sulfamoyl)-9-(5-(difluoromethyl)-1,3,4-thiadiazol-2-yl)-9H-pyrimido[4,5-b]indol-4-yl)-N-methylglycine]",≤ 100
13,"N#CC1(NS(=O)(=O)c2ccc3c4c(NC(=O)CN5CCOCC5)ncnc4n(-c4nnc(C(F)F)s4)c3c2)CC1 [Example 82, N-(7-(N-(1-Cyanocyclopropyl)sulfamoyl)-9-(5-(difluoromethyl)-1,3,4-thiadiazol-2-yl)-9H-pyrimido[4,5-b]indol-4-yl)-2-morpholinoacetamide]",≤ 100
14,"CCN1CCCC12CCN(c1ncnc3c1c1ccc(S(=O)(=O)NC4(C#N)CC4)cc1n3-c1nnc(C(F)F)s1)CC2 [Example 52, N-(1-Cyanocyclopropyl)-9-(5-(difluoromethyl)-1,3,4-thiadiazol-2-yl)-4-(1-ethyl-1,8-diazaspiro[4.5]decan-8-yl)-9H-pyrimido[4,5-b]indole-7-sulfonamide]",≤ 100

# Continued, values first:
row,IC50 [nM],SMILES
1,≤ 100,"CN(C[C@H]1COCCN1C)c1ncnc2c1c1ccc(S(=O)(=O)NC3(C#N)CC3)cc1n2-c1nnc(C(F)F)s1 [Example 66, (S)-N-(1-Cyanocyclopropyl)-9-(5-(difluoromethyl)-1,3,4-thiadiazol-2-yl)-4-(methyl((4-methylmorpholin-3-yl)methyl)amino)-9H-pyrimido[4,5-b]indole-7-sulfonamide]"
2,≤ 100,"CN(C[C@H]1CC[C@@H](O)CC1)c1ncnc2c1c1ccc(S(=O)(=O)NC3(C#N)CC3)cc1n2-c1nnc(C(F)F)s1 [Example 73, N-(1-Cyanocyclopropyl)-9-(5-(difluoromethyl)-1,3,4-thiadiazol-2-yl)-4-((((1s,4s)-4-hydroxycyclohexyl)methyl)(methyl)amino)-9H-pyrimido[4,5-b]indole-7-sulfonamide]"
3,≤ 100,"CCN(CC)C1C[C@H]2C[C@@H]1CN2c1ncnc2c1c1ccc(S(=O)(=O)NC3(C#N)CC3)cc1n2-c1nnc(C(F)F)s1 (stereo partly drawn) [Example 39, N-(1-Cyanocyclopropyl)-4-((1R,4R)-5-(diethylamino)-2-azabicyclo[2.2.1]heptan-2-yl)-9-(5-(difluoromethyl)-1,3,4-thiadiazol-2-yl)-9H-pyrimido[4,5-b]indole-7-sulfonamide]"
4,≤ 100,"CN(C[C@@H]1COCCN1C)c1ncnc2c1c1ccc(S(=O)(=O)NC3(C#N)CC3)cc1n2-c1nnc(C(F)F)s1 [Example 65, (R)-N-(1-Cyanocyclopropyl)-9-(5-(difluoromethyl)-1,3,4-thiadiazol-2-yl)-4-(methyl((4-methylmorpholin-3-yl)methyl)amino)-9H-pyrimido[4,5-b]indole-7-sulfonamide]"
5,≤ 100,"Cc1nc2n(n1)CCN(c1ncnc3c1c1ccc(S(=O)(=O)NC4(C#N)CC4)cc1n3-c1nnc(C(F)F)s1)C2 [Example 55, N-(1-Cyanocyclopropyl)-9-(5-(difluoromethyl)-1,3,4-thiadiazol-2-yl)-4-(2-methyl-5,6-dihydro-[1,2,4]triazolo[1,5-a]pyrazin-7(8H)-yl)-9H-pyrimido[4,5-b]indole-7-sulfonamide]"
6,≤ 100,"N#CC1(NS(=O)(=O)c2ccc3c4c(OCCN5CCOCC5)ncnc4n(-c4nnc(C(F)F)s4)c3c2)CC1 [Example 1, N-(1-Cyanocyclopropyl)-9-(5-(difluoromethyl)-1,3,4-thiadiazol-2-yl)-4-(2-morpholinoethoxy)-9H-pyrimido[4,5-b]indole-7-sulfonamide]"
7,≤ 100,"N#CC1(NS(=O)(=O)c2ccc3c4c(NCC5COCCO5)ncnc4n(-c4nnc(C(F)F)s4)c3c2)CC1 (centres unmarked) [Example 79, 4-(((1,4-Dioxan-2-yl)methyl)amino)-N-(1-cyanocyclopropyl)-9-(5-(difluoromethyl)-1,3,4-thiadiazol-2-yl)-9H-pyrimido[4,5-b]indole-7-sulfonamide]"
8,≤ 100,"CCN(CC)[C@H]1CCN(c2ncnc3c2c2ccc(S(=O)(=O)NC4(C#N)CC4)cc2n3-c2nnc(C(F)F)s2)C[C@@H]1F [Example 32, N-(1-Cyanocyclopropyl)-4-((3S,4S)-4-(diethylamino)-3-fluoropiperidin-1-yl)-9-(5-(difluoromethyl)-1,3,4-thiadiazol-2-yl)-9H-pyrimido[4,5-b]indole-7-sulfonamide]"
9,≤ 100,"CN(C[C@H]1CCOC1)c1ncnc2c1c1ccc(S(=O)(=O)NC3(C#N)CC3)cc1n2-c1nnc(C(F)F)s1 [Example 57, (R)-N-(1-Cyanocyclopropyl)-9-(5-(difluoromethyl)-1,3,4-thiadiazol-2-yl)-4-(methyl((tetrahydrofuran-3-yl)methyl)amino)-9H-pyrimido[4,5-b]indole-7-sulfonamide]"
